DBAASP
≈ marks a conversion by molar mass, not a printed value. Blank lines part the entries; values can stand above or below the compound they belong to.

Tests used:
Experiment in all cases: ≥ marks a high value that may be exact or a test limit, other limits are often not marked, values filed in µg/mL are converted to µM
[1] = system: Staphylococcus aureus ATCC 25923
[2] = system: Bacillus cereus ATCC 11778
[3] = system: Escherichia coli ATCC 35218
[4] = system: Pseudomonas aeruginosa ATCC 9027
[5] = system: Staphylococcus aureus NCTC 12493
[6] = system: Staphylococcus aureus ATCC 43300
[7] = system: Pseudomonas aeruginosa ATCC 27853
[8] = system: Staphylococcus aureus NCTC 10788
[9] = system: Escherichia coli NCTC 10418
[10] = system: Candida albicans NCYC 1467
Escherichia coli JW0013 = system: Escherichia coli JW0013
Pseudomonas aeruginosa = system: Pseudomonas aeruginosa
Staphylococcus aureus = system: Staphylococcus aureus
Bacillus subtilis 168 = system: Bacillus subtilis 168
[11] = system: Candida albicans F7-39/IDE99
[12] = system: Micrococcus luteus CCM 144
Escherichia coli B = system: Escherichia coli B
Bacillus megaterium = system: Bacillus megaterium
Escherichia coli ML-35 = system: Escherichia coli ML-35
[13] = system: Salmonella enterica subsp. enterica serovar Typhimurium ATCC 14028
[14] = system: Escherichia coli ATCC 25922
[15] = system: Staphylococcus aureus ATCC BAA-1556
Micrococcus luteus A270 = system: Micrococcus luteus A270
Escherichia coli = system: Escherichia coli
Listeria innocua = system: Listeria innocua

- MIC [1]: > 50 µM
- MIC [2]: ≥ 50 µM
- MIC [3]: ≥ 50 µM
- MIC [4]: > 50 µM
SMILES: CC(C)C[C@H](NC(=O)[C@H](CC(C)C)NC(=O)[C@@H](N)[C@@H](C)O)C(=O)N[C@@H](CCCCN)C(=O)N[C@@H](CCCCN)C(=O)N[C@H](C(=O)N[C@@H](CC(C)C)C(=O)N[C@@H](CCCCN)C(=O)N[C@@H](C)C(=O)N[C@@H](C)C(=O)N[C@@H](C)C(N)=O)C(C)C [TLLKKVLKAAA]

- MIC [5]: 21.8 µM (≈ 64 µg/mL)
- MIC [6]: 10.9 µM (≈ 32 µg/mL)
- MIC [7]: 21.8 µM (≈ 64 µg/mL)
- MIC [8]: 5.46 µM (≈ 16 µg/mL)
- MIC [9]: 5.46 µM (≈ 16 µg/mL)
- MIC [10]: 10.9 µM (≈ 32 µg/mL)
SMILES: CSCC[C@H](NC(=O)[C@H](CC(=O)O)NC(=O)[C@@H](NC(=O)[C@@H](NC(=O)[C@H](C)NC(=O)[C@H](CC(N)=O)NC(=O)[C@H](CC(C)C)NC(=O)[C@H](C)NC(=O)[C@H](C)NC(=O)[C@H](CCCCN)NC(=O)CNC(=O)[C@H](C)NC(=O)[C@H](C)NC(=O)[C@H](CCCCN)NC(=O)CNC(=O)[C@@H](NC(=O)[C@H](CC(N)=O)NC(=O)[C@H](CCCCN)NC(=O)[C@H](Cc1ccccc1)NC(=O)[C@H](CC(C)C)NC(=O)[C@H](CO)NC(=O)[C@H](CCCCN)NC(=O)[C@H](Cc1c[nH]c2ccccc12)NC(=O)[C@H](CC(C)C)NC(=O)CN)C(C)C)C(C)C)[C@@H](C)O)C(=O)N[C@H](C(=O)N[C@@H](CC(N)=O)C(=O)N[C@@H](CCC(N)=O)C(N)=O)C(C)C [GLWKSLFKNVGKAAGKAALNAVTDMVNQ]

- MIC (Escherichia coli JW0013): 2.03 µM (≈ 4.8 µg/mL)
SMILES: CC[C@H](C)[C@H](NC(=O)[C@H](CCCN=C(N)N)NC(=O)[C@H](CCCN=C(N)N)NC(=O)[C@@H]1CCCN1C(=O)[C@@H]1CCCN1C(=O)[C@H](CCCN=C(N)N)NC(=O)[C@@H]1CCCN1C(=O)[C@H](CCSC)NC(=O)[C@@H]1CCCN1C(=O)[C@H](CC(C)C)NC(=O)[C@H](Cc1ccc(O)cc1)NC(=O)[C@@H]1CCCN1C(=O)[C@@H]1CCCN1C(=O)[C@H](CCCCN)NC(=O)[C@H](CC(=O)O)NC(=O)[C@@H](N)C(C)C)C(=O)N[C@@H](Cc1ccc(O)cc1)C(=O)N[C@@H](CC(N)=O)C(=O)N[C@@H](CCCN=C(N)N)C(N)=O [VDKPPYLPMPRPPRRIYNR]

- MIC (Pseudomonas aeruginosa): > 100 µM
- MIC (Staphylococcus aureus): > 100 µM
- MIC (Bacillus subtilis 168): ≥ 100 µM
- MIC [11]: ≥ 100 µM
- MIC [12]: ≥ 100 µM
- MIC (Escherichia coli B): ≥ 100 µM
SMILES: CC(C)C[C@H](NC(=O)[C@H](C)NC(=O)[C@H](C)NC(=O)CNC(=O)[C@H](Cc1c[nH]c2ccccc12)NC(=O)[C@H](CC(N)=O)NC(=O)[C@@H](N)CC(C)C)C(=O)N[C@@H](CCCCN)C(=O)N[C@@H](Cc1cnc[nH]1)C(=O)N[C@@H](C)C(=O)N[C@@H](C)C(=O)N[C@@H](CCCCN)C(N)=O [LNWGAALKHAAK]

- MIC (Pseudomonas aeruginosa): 46.7 µM (≈ 66.3 µg/mL)
- MIC (Staphylococcus aureus): 11.7 µM (≈ 16.6 µg/mL)
- MIC (Bacillus subtilis 168): 3.7 µM (≈ 5.25 µg/mL)
- MIC [11]: 5.1 µM (≈ 7.24 µg/mL)
- MIC [12]: 3.7 µM (≈ 5.25 µg/mL)
- MIC (Escherichia coli B): 3.7 µM (≈ 5.25 µg/mL)
SMILES: CC[C@H](C)[C@H](NC(=O)[C@H](C)NC(=O)CNC(=O)[C@H](Cc1c[nH]c2ccccc12)NC(=O)[C@H](CCCCN)NC(=O)[C@@H](N)CC(C)C)C(=O)N[C@@H](CC(C)C)C(=O)N[C@@H](CCCCN)C(=O)N[C@@H](Cc1cnc[nH]1)C(=O)N[C@H](C(=O)N[C@H](C(=O)N[C@@H](CCCCN)C(N)=O)[C@@H](C)CC)[C@@H](C)CC [LKWGAILKHIIK]

- MIC [1]: 4 µM (≈ 10.2 µg/mL)
- MIC (Bacillus megaterium): 4 µM (≈ 10.2 µg/mL)
- MIC (Escherichia coli ML-35): 2 µM (≈ 5.1 µg/mL)
- MIC [13]: 2 µM (≈ 5.1 µg/mL)
- MIC [7]: 0.5 µM (≈ 1.28 µg/mL)
- MIC [14]: 4 µM (≈ 10.2 µg/mL)
SMILES: CC[C@H](C)[C@H](NC(=O)[C@H](CCCCN)NC(=O)[C@H](CCCCN)NC(=O)[C@H](CC(C)C)NC(=O)[C@H](CCCCN)NC(=O)[C@H](CCC(N)=O)NC(=O)[C@H](CCCCN)NC(=O)[C@@H](NC(=O)[C@H](CCCCN)NC(=O)[C@H](CC(N)=O)NC(=O)[C@H](CCCN=C(N)N)NC(=O)[C@H](Cc1ccccc1)NC(=O)[C@H](CCCCN)NC(=O)[C@H](CCCN=C(N)N)NC(=O)[C@H](CC(C)C)NC(=O)[C@H](CCCN=C(N)N)NC(=O)[C@H](CCCCN)NC(=O)[C@H](CCCN=C(N)N)NC(=O)[C@H](CC(C)C)NC(=O)CN)[C@@H](C)CC)C(=O)O [GLRKRLRKFRNKIKQKLKKI]

- MIC (Escherichia coli JW0013): 0.3 µM (≈ 0.615 µg/mL)
SMILES: CC[C@H](C)[C@H](NC(=O)[C@H](CCCN=C(N)N)NC(=O)[C@@H](N)CCCCN)C(=O)N[C@@H](CCCN=C(N)N)C(=O)N1CCC[C@H]1C(=O)N[C@@H](CCCN=C(N)N)C(=O)N1CCC[C@H]1C(=O)N1CCC[C@H]1C(=O)N[C@@H](CCCN=C(N)N)C(=O)N[C@@H](CC(C)C)C(=O)N1CCC[C@H]1C(=O)N[C@@H](CCCN=C(N)N)C(=O)N1CCC[C@H]1C(=O)N[C@@H](CCCN=C(N)N)C(=O)N1CCC[C@H]1C(=O)N[C@@H](CCCN=C(N)N)C(=O)O [KRIRPRPPRLPRPRPR]

- MIC (Escherichia coli JW0013): 0.959 µM (≈ 2.4 µg/mL)
SMILES: CC[C@H](C)[C@H](NC(=O)[C@H](CCCN=C(N)N)NC(=O)[C@H](CCCN=C(N)N)NC(=O)[C@@H]1CCCN1C(=O)[C@@H]1CCCN1C(=O)[C@H](CCCN=C(N)N)NC(=O)[C@H](CCCN=C(N)N)NC(=O)[C@H](CCCN=C(N)N)NC(=O)[C@@H]1CCCN1C(=O)[C@H](CC(C)C)NC(=O)[C@H](CCCN=C(N)N)NC(=O)[C@@H]1CCCN1C(=O)[C@H](CCCN=C(N)N)NC(=O)[C@H](CCCCN)NC(=O)[C@H](CC(=O)O)NC(=O)[C@@H](N)C(C)C)C(=O)N[C@@H](Cc1ccc(O)cc1)C(=O)N[C@@H](CC(N)=O)C(=O)N[C@@H](CCCN=C(N)N)C(N)=O [VDKRPRLPRRRPPRRIYNR]

- MIC [15]: ≥ 100 µM
SMILES: CC(C)C[C@H](NC(=O)[C@H](CC(C)C)NC(=O)[C@H](CC(C)C)NC(=O)[C@H](CCCCN)NC(=O)[C@H](CC(C)C)NC(=O)[C@H](CC(C)C)NC(=O)[C@H](CC(C)C)NC(=O)[C@H](CCCCN)NC(=O)[C@@H](N)CC(C)C)C(N)=O [LKLLLKLLL]

- MIC (Escherichia coli JW0013): 0.3 µM (≈ 0.715 µg/mL)
SMILES: CC[C@H](C)[C@H](NC(=O)[C@@H]1CCCN1C(=O)[C@H](CCCN=C(N)N)NC(=O)[C@@H]1CCCN1C(=O)[C@@H]1CCCN1C(=O)[C@@H](NC(=O)[C@@H]1CCCN1C(=O)[C@H](CCCN=C(N)N)NC(=O)[C@@H]1CCCN1C(=O)[C@H](CCCN=C(N)N)NC(=O)[C@H](Cc1ccc(O)cc1)NC(=O)[C@H](CO)NC(=O)CNC(=O)[C@H](CCCCN)NC(=O)[C@H](CC(=O)O)NC(=O)[C@@H](N)C(C)C)[C@@H](C)O)C(=O)N[C@@H](Cc1ccc(O)cc1)C(=O)N[C@@H](CC(N)=O)C(=O)N[C@@H](CCCN=C(N)N)C(=O)N[C@@H](CC(N)=O)C(=O)O [VDKGSYRPRPTPPRPIYNRN]

- MIC (Micrococcus luteus A270): ≥ 45 µM
- MIC (Escherichia coli): 11 µM (≈ 30.3 µg/mL)
- MIC (Listeria innocua): 11 µM (≈ 30.3 µg/mL)
SMILES: CC(C)C[C@H](NC(=O)[C@@H](NC(=O)[C@@H](NC(=O)[C@H](CC(C)C)NC(=O)[C@H](CC(C)C)NC(=O)[C@H](CO)NC(=O)[C@H](Cc1cnc[nH]1)NC(=O)[C@H](CO)NC(=O)[C@H](CC(C)C)NC(=O)[C@H](CC(C)C)NC(=O)[C@H](CCCCN)NC(=O)[C@H](Cc1ccccc1)NC(=O)[C@H](CC(N)=O)NC(=O)[C@@H](NC(=O)[C@@H]1CCCN1C(=O)[C@H](CC(=O)O)NC(=O)[C@@H](NC(=O)[C@H](CCCN=C(N)N)NC(=O)[C@H](CC(C)C)NC(=O)[C@H](CCCCN)NC(=O)[C@H](Cc1cnc[nH]1)NC(=O)[C@H](C)NC(=O)[C@H](Cc1cnc[nH]1)NC(=O)[C@@H](N)CC(C)C)C(C)C)C(C)C)C(C)C)[C@@H](C)O)C(=O)O [LHAHKLRVDPVNFKLLSHSLLVTL]

- MIC (Escherichia coli JW0013): 0.3 µM (≈ 0.694 µg/mL)
SMILES: CC[C@H](C)[C@H](NC(=O)[C@@H]1CCCN1C(=O)[C@H](CCCCN)NC(=O)[C@@H]1CCCN1C(=O)[C@@H]1CCCN1C(=O)[C@@H](NC(=O)[C@@H]1CCCN1C(=O)[C@H](CCCN=C(N)N)NC(=O)[C@@H]1CCCN1C(=O)[C@H](CC(C)C)NC(=O)[C@H](Cc1ccc(O)cc1)NC(=O)[C@H](CO)NC(=O)CNC(=O)[C@H](CCCCN)NC(=O)[C@H](CC(=O)O)NC(=O)[C@@H](N)C(C)C)[C@@H](C)O)C(=O)N[C@@H](Cc1ccc(O)cc1)C(=O)N[C@@H](CC(N)=O)C(=O)N[C@@H](CCCN=C(N)N)C(=O)N[C@@H](CC(N)=O)C(=O)O [VDKGSYLPRPTPPKPIYNRN]
